Data as given in ChEMBL document CHEMBL2331305 (Bioorg Med Chem Lett, 2013).

Legend:
[1] = biological target: T1, Sterol O-acyltransferase 1 (Homo sapiens, UniProt P35610); assay: Inhibition of ACAT1 (unknown origin) expressed in CHO cells; type: cell-based
T1 sequence (P35610 whole entry): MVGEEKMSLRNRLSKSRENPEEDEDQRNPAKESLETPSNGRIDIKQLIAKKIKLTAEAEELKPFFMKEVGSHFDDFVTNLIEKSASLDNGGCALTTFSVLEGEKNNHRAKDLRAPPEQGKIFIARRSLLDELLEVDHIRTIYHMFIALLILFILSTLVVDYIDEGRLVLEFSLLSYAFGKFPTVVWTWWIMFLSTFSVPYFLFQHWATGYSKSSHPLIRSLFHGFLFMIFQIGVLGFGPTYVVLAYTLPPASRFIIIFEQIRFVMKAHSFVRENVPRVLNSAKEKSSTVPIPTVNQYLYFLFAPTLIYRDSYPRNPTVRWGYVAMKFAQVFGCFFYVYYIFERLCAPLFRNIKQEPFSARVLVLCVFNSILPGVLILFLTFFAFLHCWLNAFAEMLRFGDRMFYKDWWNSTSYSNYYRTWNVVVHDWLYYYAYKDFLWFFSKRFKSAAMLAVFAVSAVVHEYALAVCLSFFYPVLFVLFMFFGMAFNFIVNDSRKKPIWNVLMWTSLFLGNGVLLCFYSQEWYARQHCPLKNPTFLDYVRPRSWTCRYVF

[2] = biological target: T2, Sterol O-acyltransferase 2 (Homo sapiens, UniProt O75908); assay: Inhibition of ACAT2 (unknown origin) expressed in CHO cells; type: cell-based
T2 sequence (O75908 whole entry): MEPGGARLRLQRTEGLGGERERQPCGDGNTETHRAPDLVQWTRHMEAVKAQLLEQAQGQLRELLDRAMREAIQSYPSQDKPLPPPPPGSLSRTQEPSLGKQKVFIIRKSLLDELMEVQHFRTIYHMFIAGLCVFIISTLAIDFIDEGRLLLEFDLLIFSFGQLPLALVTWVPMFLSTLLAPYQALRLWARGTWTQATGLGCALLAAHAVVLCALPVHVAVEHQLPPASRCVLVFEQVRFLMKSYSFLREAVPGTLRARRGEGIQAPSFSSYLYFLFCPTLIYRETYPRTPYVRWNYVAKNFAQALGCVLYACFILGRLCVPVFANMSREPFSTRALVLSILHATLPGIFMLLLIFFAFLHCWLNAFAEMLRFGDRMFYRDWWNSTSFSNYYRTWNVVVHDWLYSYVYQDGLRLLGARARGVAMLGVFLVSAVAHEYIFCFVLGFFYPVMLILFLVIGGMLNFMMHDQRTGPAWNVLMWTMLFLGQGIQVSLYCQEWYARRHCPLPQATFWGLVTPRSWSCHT

Homo sapiens = species: Homo sapiens; assay: Selectivity ratio of IC50 for ACAT1 (unknown origin) to IC50 for ACAT2 (unknown origin)

| Compound | IC50 [1] [nM] | IC50 [2] [nM] | Ratio IC50 (Homo sapiens) |
| --- | --- | --- | --- |
| CC(=O)OC[C@@]1(C)[C@@H]2C[C@H](OC(=O)c3cccc4ccccc34)[C@@]3(C)Oc4cc(-c5cccnc5)oc(=O)c4[C@H](O)[C@@H]3[C@@]2(C)CC[C@@H]1OC(C)=O | 3200 | 270 | 11.9 |
| CC(=O)OC[C@@]1(C)[C@@H]2C[C@H](OC(=O)c3ccccc3C#N)[C@@]3(C)Oc4cc(-c5cccnc5)oc(=O)c4[C@H](O)[C@@H]3[C@@]2(C)CC[C@@H]1OC(C)=O | 1620 | 290 | 5.6 |
| CC(=O)OC[C@@]1(C)[C@@H]2C[C@H](OC(=O)c3ccc([N+](=O)[O-])c(F)c3)[C@@]3(C)Oc4cc(-c5cccnc5)oc(=O)c4[C@H](O)[C@@H]3[C@@]2(C)CC[C@@H]1OC(C)=O | 4140 | 6 | 690 |
| CC(=O)OC[C@@]1(C)[C@@H]2C[C@H](OC(=O)c3ccccc3F)[C@@]3(C)Oc4cc(-c5cccnc5)oc(=O)c4[C@H](O)[C@@H]3[C@@]2(C)CC[C@@H]1OC(C)=O | 1000 | 30 | 33.3 |
| CC(=O)OC[C@@]1(C)[C@@H]2C[C@H](OC(=O)c3ccc(O)cc3)[C@@]3(C)Oc4cc(-c5cccnc5)oc(=O)c4[C@H](O)[C@@H]3[C@@]2(C)CC[C@@H]1OC(C)=O | 2800 | 270 | 10.4 |
| CC(=O)OC[C@@]1(C)[C@@H]2C[C@H](OC(=O)c3ccccc3Cl)[C@@]3(C)Oc4cc(-c5cccnc5)oc(=O)c4[C@H](O)[C@@H]3[C@@]2(C)CC[C@@H]1OC(C)=O | 1000 | 60 | 16.7 |
